Like-named read-outs stand apart in the source and are kept apart here.
Experiments:
[1] = Proof-of-concept trial: entry PK study, deferiprone in serum after the first oral dose; assay type: in vivo, human; conditions: for Cmax: human, serum
Source text: Eligible for enrollment were volunteers of both genders, between 18 and 60 years old, healthy or HIV-infected with CD4 count ≥ 300/mm^3, viral load of ≥ 10,000 copies/ml, and absence of active infectious disease; AIDS-defining condition; febrile illness; liver or kidney disease; hypersensitivity to test material; and medication requirement. The protocol involved a screening visit; a pharmacokinetic and antiretroviral study requiring admission to a specialized Phase I research unit for a week of on-drug treatment, with multiple blood draws from a peripheral vein after oral intake of the first deferiprone dose, […], and at least three repeat blood draws (first stage of protocol); an off-drug observation period of eight weeks, which comprised at least two repeat visits (second stage of protocol); and an exit visit. Enrollment complied with the applicable standard-of-care specified in the ‘Clinical Guidelines for the Management of HIV & AIDS in Adults and Adolescents’, National Department of Health, Republic of South Africa. Primary parameters included safety and tolerability (e.g. vital signs, laboratory variables, cardiac monitoring by ECG) and antiretroviral activity (e.g. RNA copies of HIV-1). Secondary parameters included pharmacokinetic variables (e.g. peak serum concentration) in serum, drawn from a peripheral vein at fixed times (0, 0.5, 1, 1.5, 2, 3, 4, 6, 9, 12) after the ingestion of the first dose on Day 1 of the study. The concentration of the nonconjugated, chelation-competent form of deferiprone in serum was determined by UV detection at 280 nm, after separation via reversed-phase HPLC under isocratic conditions. The lower limit of deferiprone quantitation was 1.466 μM, or 0.204 μg/ml. HIV-1 RNA was measured as described and used as log10-transformed parameter in all calculations.

[2] = tested on: HIV-1; experiment: Proof-of-concept trial: HIV-1 RNA in plasma of treatment-naive HIV-infected subjects (ICR, ICD); assay type: in vivo, human; conditions: for period for which the decrease of HIV-1 RNA persists off-drug: 7-day / 17-dose course, responsive cohort; for ICR relative to pre-treatment level: regimen-compliant responsive sub-group (Subjects 1, 5, 20, 24)
Experimental: Cell-free supernatants were used for p24 and HIV-1 RNA measurements. p24 core antigen in the supernatant was quantified by ELISA (Retrotek HIV-1 p24®; ZeptoMetrix Corp.; Buffalo, NY). HIV-1 RNA copy number in the supernatant of PBMC cultures and in plasma of trial subjects enrolled in the exploratory deferiprone trial was determined with a PCR-based and FDA-approved assay (Amplicor HIV-1 Monitor®; Roche Diagnostics Corp.; Indianapolis, IN). For clinical samples, the assay was used per the Standard Specimen Processing Procedure (sensitivity limit 400 copies/ml); for cell culture samples, the assay was used in both the Standard Specimen Processing and the UltraSensitive Specimen Processing Procedure (sensitivity limit 50 copies/ml). If not specified further, the term “log10” designates the amount of HIV-1 RNA in the dimensions [log10 / ml]. The Roche Amplicor HIV-1 DNA Test (Roche Diagnostics Corp.; Indianapolis, IN) was used for detection of HIV-1 DNA with the primer pair SK431/462, which amplifies a highly conserved region of the gag genome of HIV-1 subtype B DNA. […] Apoptotic DNA fragmentation was quantified flow-cytometrically, using a terminal deoxynucleotide transferase dUTP nick end-labeling (TUNEL) assay (APO-BRDU™; Phoenix Flow Systems; San Diego, CA). All experiments and assays were performed at least in duplicate.
Eligible for enrollment were volunteers of both genders, between 18 and 60 years old, healthy or HIV-infected with CD4 count ≥ 300/mm^3, viral load of ≥ 10,000 copies/ml, and absence of active infectious disease; AIDS-defining condition; febrile illness; liver or kidney disease; hypersensitivity to test material; and medication requirement. The protocol involved a screening visit; a pharmacokinetic and antiretroviral study requiring admission to a specialized Phase I research unit for a week of on-drug treatment, with multiple blood draws from a peripheral vein after oral intake of the first deferiprone dose, either 33 mg/kg or 50 mg/kg, and at least three repeat blood draws (first stage of protocol); an off-drug observation period of eight weeks, which comprised at least two repeat visits (second stage of protocol); and an exit visit. Enrollment complied with the applicable standard-of-care specified in the ‘Clinical Guidelines for the Management of HIV & AIDS in Adults and Adolescents’, National Department of Health, Republic of South Africa. Primary parameters included safety and tolerability (e.g. vital signs, laboratory variables, cardiac monitoring by ECG) and antiretroviral activity (e.g. RNA copies of HIV-1). Secondary parameters included pharmacokinetic variables (e.g. peak serum concentration) in serum, drawn from a peripheral vein at fixed times (0, 0.5, 1, 1.5, 2, 3, 4, 6, 9, 12) after the ingestion of the first dose on Day 1 of the study. The concentration of the nonconjugated, chelation-competent form of deferiprone in serum was determined by UV detection at 280 nm, after separation via reversed-phase HPLC under isocratic conditions. The lower limit of deferiprone quantitation was 1.466 μM, or 0.204 μg/ml. HIV-1 RNA was measured as described and used as log10-transformed parameter in all calculations.
26 consecutive subjects were randomly enrolled in the IRB-approved proof-of-concept trial and gave written informed consent to be studied (Supporting Information, S2 Text); recruitment of trial subjects commenced in November 2006 and follow-up terminated in April 2008.

[3] = after 8 weeks off-drug, P = 0.003

Structure (SMILES): Cc1c(O)c(=O)ccn1C [deferiprone, 3-hydroxy-1,2-dimethylpyridin-4-one]
- subjects with serum cmax concentrations above the threshold (150 μM) ([1]; 99 mg group): 4 of 7
- subjects with serum cmax concentrations above the threshold (150 μM) ([1]; 150 mg group): 3 of 4
- Cmax ([1]; both sexes, oral, approximation from pharmacokinetic, viral load and tolerability findings, read-out: serum cmax an effective and tolerable regimen may have to achieve): 150 to 275 µM
- Cmax ([1]; both sexes, po, 33 mg/kg, 99 mg group, first oral dose 33 mg/kg, read-out: cmax, range within group): 53 to 314 µM
- Cmax ([1]; both sexes, po, 50 mg/kg, 150 mg group, first oral dose 50 mg/kg, read-out: cmax, range within group): 128 to 285 µM
- Cmax ([1]; oral, 99 mg, Subject 2, 99 mg group, read-out: cmax): 314 µM
- Cmax ([1]; oral, 150 mg, Subject 19, 150 mg group, read-out: cmax): 128 µM
- Cmax ([1]; oral, 150 mg, Subject 22, 150 mg group, read-out: cmax): 285 µM
- protocol-completing subjects with no viral load change ([2]; 99 mg group (33 mg/kg/dose orally three times per day)): 66%
- ICR after the one-week treatment ([2]; 99 mg group, Subjects 1, 2, 5, achieved threshold and had a viral response): -0.36 log10
- ICR after the one-week treatment ([2]; 99 mg group, Subjects 4, 6, 8, did not achieve the ≥150 μM threshold): +0.23 log10
- ICD between threshold-achieving responders and non-achievers ([2]; 99 mg group, one-week treatment, P = 0.004): 0.59 log10
- within-subject variability of HIV-1 RNA reached after the one-week treatment ([2]; 99 mg/kg group): -0.45 log10
- within-subject variability of HIV-1 RNA reached after the one-week treatment ([2]; 150 mg group): -0.53 log10
- protocol-completing subjects with no viral load change ([2]; 150 mg group (50 mg/kg/dose orally three times per day)): 25%
- ICR after the one-week treatment ([2]; 150 mg group, Subjects 20, 22, 24, cmax ≥150 μM): -0.39 log10
- period for which the decrease of HIV-1 RNA persists off-drug [2]: 8 weeks
- period for which the decrease of HIV-1 RNA persists off-drug ([2]; listed as Deferiprone): at least 8 weeks
- off-drug retention of the HIV-1 RNA reduction as multiple of the drug's half-life ([2]; 8 weeks off-drug after 17 doses): over 670 times
- average level of HIV-1 RNA ([2]; 'decrease' cohort, after 4 weeks off-drug): 4.44 log10
- average level of HIV-1 RNA ([2]; 'decrease' cohort, after 8 weeks off-drug): 4.52 log10
- average level of HIV-1 RNA ([2]; 'decrease' cohort, after 7 days (4.90 log10 initially)): 4.53 log10
- average level of HIV-1 RNA ([2]; 'no-decrease' cohort, after 4 weeks off-drug): 4.83 log10
- average level of HIV-1 RNA ([2]; 'no-decrease' cohort, after 8 weeks off-drug): 4.70 log10
- average level of HIV-1 RNA ([2]; 'no-decrease' cohort, after 7 days (4.53 log10 initially)): 4.74 log10
- ICR after 8 weeks off-drug ([2]; DTD 'decrease' cohort): -0.31 log10
- ICR at the end of the first stage (S1, Day 7 vs Day 1) ([2]; DTD 'decrease' cohort, N = 6): -0.37 log10
- ICR after 8 weeks off-drug ([2]; DTD 'no-decrease' cohort): +0.17 log10
- ICR at the end of the first stage (S1, Day 7 vs Day 1) ([2]; DTD 'no-decrease' cohort, N = 5): +0.21 log10
- ICR at the end of 8 weeks off-drug ([2]; Group A, cmax ≥150 μM): -0.28 log10
- intra-cohort response (ICR), HIV-1 RNA Day 7 relative to Day 1 ([2]; Group A, cmax ≥150 μM on either dosage, N = 7, 7 days on-drug): -0.27 log10
- subjects who achieved the threshold (cmax ≥150 μM) and showed a decline in viral load ([2]; Group A, one-week treatment): 6 of the 7
- viral load in the 4 subjects who did not achieve the threshold ([2]; Group B, one-week treatment): did not show a decline in viral load
- ICR at the end of 8 weeks off-drug ([2]; Group B, threshold-failing): +0.24 log10
- change in viral load during the one-week treatment ([2]; Subject 19, 150 mg group, cmax 128 μM): +0.02 log10
- ICD Group A vs Group B [2, 3]: 0.52 log10
- ICD regimen-compliant 'decrease' sub-group vs 'no-decrease' cohort [2, 3]: 0.61 log10
- ICD 'decrease' vs 'no-decrease' cohort ([2]; after 8 weeks off-drug, P = 0.008): 0.48 log10
- intercohort difference (ICD) Group A vs Group B ([2]; after one week on-drug): 0.44 log10
- ICD 'decrease' vs 'no-decrease' cohort ([2]; end of first stage S1, P = 0.0001): 0.58 log10
- intra-cohort response (ICR), HIV-1 RNA Day 7 relative to Day 1 ([2]; human, in vivo): +0.17 log10
- ICR relative to pre-treatment level ([2]; after 8 weeks off-drug): -0.38 log10
- ICR relative to pre-treatment level ([2]; after 7 days on-drug): -0.40 log10

Reference: publication PMC4871512, “Drug-Based Lead Discovery: The Novel Ablative Antiretroviral Profile of Deferiprone in HIV-1-Infected Cells and in HIV-Infected Treatment-Naive Subjects of a Double-Blind, Placebo-Controlled, Randomized Exploratory Trial” (PLoS ONE, 2016)
